Among the data in patent US7189749B2, “Substituted phenoxyacetic acids” (The Institutes for Pharmaceutical Discovery LLC, priority 1999, dated 2007) are IC50, hALR1/hALR2 and inhibition values, retold here.

Each structure is given as a SMILES string. Like-named read-outs stand apart in the source and are kept apart here.

Test [1] has as its target human aldose reductase (hALR2) (Homo sapiens, UniProt P15121). In words: inhibition of human aldose reductase (hALR2), methods similar to Butera et al. It is filed as biochemical. Here is the method:
Representative compounds of the invention were tested for their potency, selectivity and efficacy as inhibitors of human aldose reductase.

Test [2] addresses T1, human aldehyde reductase (hALR1) (Homo sapiens, UniProt P14550).
T1 sequence (P14550 1-325): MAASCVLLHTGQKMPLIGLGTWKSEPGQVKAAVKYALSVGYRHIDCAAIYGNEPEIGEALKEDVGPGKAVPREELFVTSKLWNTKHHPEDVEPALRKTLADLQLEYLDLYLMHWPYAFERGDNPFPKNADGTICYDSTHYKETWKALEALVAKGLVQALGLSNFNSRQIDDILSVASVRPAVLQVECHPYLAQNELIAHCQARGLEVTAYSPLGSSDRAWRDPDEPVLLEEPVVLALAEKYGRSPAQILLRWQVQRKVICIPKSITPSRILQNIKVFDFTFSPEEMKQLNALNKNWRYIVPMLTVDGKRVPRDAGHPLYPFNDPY
In words: inhibition of human aldehyde reductase (hALR1), methods essentially of Ishii et al. It is filed as biochemical. The note with it: for IC50: concentration required to inhibit human aldehyde reductase activity by 50%; for hALR1/hALR2: ratio of hALR1 IC50 to hALR2 IC50, selectivity. Here is the method: In a second assay, a number of the same compounds were tested for their ability to inhibit aldehyde reductase (hAR1), a structurally related enzyme. […] Using this assay, the concentrations required to inhibit human aldehyde reductase activity by 50% (ICSO) were determined.
Since high potency of test compounds as inhibitors of aldose reductase is desirable, low hALR2 IC50 values are sought. On the other hand, high potency of test compounds as inhibitors of aldehyde reductase is undesirable, and high hALR1 IC50s values are sought. Accordingly, the hALR1/hALR2 ratio is used to determine the selectivity of the test compounds.

[3] abbreviates: concentration required to inhibit human aldose reductase activity by 50%.

In test [1] (setting [3]), `O=C(O)COc1cc(Cl)ccc1C(=O)NCc1ccc(Br)cc1F` [Example 1, [2-(4-Bromo-2-fluoro-benzylcarbamoyl)-5-chloro-phenoxy]-acetic acid] had a concentration for half-maximal inhibition (IC50) of 30 nM. In addition, in test [2], the midpoint of inhibition, the IC50, lay at 14000 nM and the hALR1/hALR2 is 470.
Turning to `O=C(O)COc1cc(Cl)ccc1C(=O)NCc1cccc(C(F)(F)F)c1` [Example 4, [5-Chloro-2-(3-trifluoromethyl-benzylcarbamoyl)-phenoxy]-acetic acid], 39 nM corresponded to half-maximal inhibition in test [1] (setting [3]) (IC50).
In test [1], `O=C(O)COc1cc(Cl)ccc1C(=O)NCc1cccc([N+](=O)[O-])c1` [Example 5, [2-(3-Nitro-benzylcarbamoyl)-5-chloro-phenoxy]-acetic acid] had an IC50 of 6 nM. Also, the hALR1/hALR2 in test [2] is listed as >4,200. Further, the inhibition at 25 µM in test [2] (read-out: hALR1 (aldehyde) % inhibition @ 25 μM) amounted to 19%.
In test [1] (setting [3]), `O=C(O)COc1cc(Cl)ccc1C(=O)NCc1cc(F)cc(C(F)(F)F)c1` [Example 11, [5-Chloro-2-(3-fluoro-5-trifluoromethyl-benzylcarbamoyl)-phenoxy]-acetic acid] returned a 50% inhibitory concentration (IC50) of 29 nM.
Take `O=C(O)COc1cc(Cl)ccc1C(=O)NCc1ccc(Cl)c(Cl)c1` [Example 14, [5-Chloro-2-(3,4-dichloro-benzylcarbamoyl)-phenoxy]-acetic acid]: the results for the IC50 in test [1] (setting [3]) and in test [2] were 34 nM and 18000 nM, respectively. Further, the hALR1/hALR2 in test [2] came out at 530.
The corresponding values for `O=C(O)COc1ccc(Cl)cc1C(=O)NCc1ccc(Br)cc1F` [Example 17, [2-(4-Bromo-2-fluoro-benzylcarbamoyl)-4-chloro-phenoxy]-acetic acid] are 46 nM, 18000 nM and 390.
In test [1] (setting [3]), `O=C(O)COc1ccc(F)cc1C(=O)NCc1ccc(Br)cc1F` [Example 18, [2-(4-Bromo-2-fluoro-benzylcarbamoyl)-4-fluoro-phenoxy]-acetic acid] gave an IC50 of 150 nM.
In test [1] (setting [3]), `O=C(O)COc1ccc(Br)cc1C(=O)NCc1ccc(Br)cc1F` [Example 19, [4-Bromo-2-(4-bromo-2-fluoro-benzylcarbamoyl)-phenoxy]-acetic acid] showed a concentration for half-maximal inhibition (IC50) of 64 nM.
Consider `Cc1ccc(OCC(=O)O)c(C(=O)NCc2ccc(Br)cc2F)c1` [Example 20, [2-(4-Bromo-2-fluoro-benzylcarbamoyl)-4-methyl-phenoxy]-acetic acid], for which the IC50 in test [1] (setting [3]) was 69 nM. Further, in test [2], the IC50 came out at 11000 nM and the hALR1/hALR2 is recorded as 160.
In test [1] (setting [3]), `O=C(O)COc1ccc([N+](=O)[O-])cc1C(=O)NCc1ccc(Br)cc1F` [Example 21, [2-(4-Bromo-2-fluoro-benzylcarbamoyl)-4-nitro-phenoxy]-acetic acid] came in with an IC50 of 200 nM.
`O=C(O)COc1ccccc1C(=O)NCc1ccc(Br)cc1F` [Example 23, [2-(4-Bromo-2-fluoro-benzylcarbamoyl)-phenoxy]-acetic acid]: the midpoint of inhibition in test [1] (setting [3]), the IC50, lay at 180 nM. The IC50 values of the last two molecules are within 1.5-fold of each other.
On the same count and under the same terms, then `CSc1ccc(C(=O)NCc2ccc(Br)cc2F)c(OCC(=O)O)c1` [Example 24, [2-(4-Bromo-2-fluoro-benzylcarbamoyl)-5-methylsulfanyl-phenoxy]-acetic acid], with 83 nM.
Turning to `Cc1ccc(OCC(=O)O)c(C(=O)NCc2cccc([N+](=O)[O-])c2)c1` [Example 25, [2-(3-Nitro-benzylcarbamoyl)-4-methyl-phenoxy]-acetic acid], the half-maximal inhibitory concentration (IC50) in test [1] (setting [3]) is 11 nM. The hALR1/hALR2 in test [2] is on record as >9,100. Further, in test [2] (read-out: hALR1 (aldehyde) % inhibition @ 100 μM), the inhibition at 100 µM amounted to 48%.
With `O=C(O)COc1ccc(OC(F)(F)F)cc1C(=O)NCc1cccc([N+](=O)[O-])c1` [Example 26, [2-(3-nitro-benzylcarbamoyl)-4-trifluoromethoxy-phenoxy]-acetic acid], the IC50 in test [1] (setting [3]) came out at 9 nM.
As to `O=C(O)COc1cc(F)ccc1C(=O)NCc1cccc([N+](=O)[O-])c1` [Example 27, [5-Fluoro-2-(3-nitro-benzylcarbamoyl)-phenoxy]-acetic acid], the IC50 in test [1] (setting [3]) amounted to 8 nM. In test [2], the IC50 was 34000 nM and the hALR1/hALR2 is recorded as 4,300.
With `O=C(O)COc1cc(F)ccc1C(=O)NCc1ccc(Br)cc1F` [Example 28, [2-(4-Bromo-2-fluoro-benzylcarbamoyl)-5-fluoro-phenoxy]-acetic acid], in test [1] (setting [3]), the 50% inhibitory concentration (IC50) worked out at 55 nM. Moreover, in test [2], the midpoint of inhibition, the IC50, lay at 6600 nM and the hALR1/hALR2 is recorded as 120.
In turn, `Cc1ccc(CNC(=O)c2ccc(F)cc2OCC(=O)O)cc1[N+](=O)[O-]` [Example 29, [5-Fluoro-2-(4-methyl-3-nitro-benzylcarbamoyl)-phenoxy]-acetic acid] registered a half-maximal inhibitory concentration (IC50) in test [1] (setting [3]) of 8 nM.
Same read-out and setting: then `O=C(O)COc1cc(F)c(F)cc1C(=O)NCc1ccc(Br)cc1F` [Example 30, [2-(4-Bromo-2-fluoro-benzylcarbamoyl)-4,5-difluoro-phenoxy]-acetic acid], with 37 nM.
Regarding `O=C(O)COc1cc(F)ccc1C(=S)NCc1cccc([N+](=O)[O-])c1` [Example 32, [5-Fluoro-2-(3-nitro-benzylthiocarbamoyl)-phenoxy]-acetic acid], the IC50 in test [1] (setting [3]) was found to be 6 nM. In test [2], inhibition was half-maximal at 35000 nM (IC50) and the hALR1/hALR2 is recorded as 5,800.
`O=C(O)COc1cc(F)ccc1C(=S)NCc1ccc(Br)cc1F` [Example 33, [2-(4-Bromo-2-fluoro-benzylthiocarbamoyl)-5-fluoro-phenoxy]-acetic acid] yielded an IC50 in test [1] (setting [3]) of 34 nM. In test [2], the IC50 came out at 33000 nM and the hALR1/hALR2 was found to be 970.
`O=C(O)COc1ccc(Br)cc1C(=S)NCc1ccc(Br)cc1F` [Example 34, [4-Bromo-2-(4-bromo-2-fluoro-benzylthiocarbamoyl)-phenoxy]-acetic acid] registered a 50% inhibitory concentration (IC50) in test [1] (setting [3]) of 37 nM.
Regarding `O=C(O)COc1ccc(OC(F)(F)F)cc1C(=S)NCc1cccc([N+](=O)[O-])c1` [Example 35, [2-(3-Nitro-benzylthiocarbamoyl)-4-trifluoromethoxy-phenoxy]-acetic acid], in test [1] (setting [3]), half-maximal inhibition (IC50) required 12 nM.
In test [1] (setting [3]), `O=C(O)COc1cc(F)c(F)cc1C(=S)NCc1ccc(Br)cc1F` [Example 36, [2-(4-Bromo-2-fluoro-benzylthiocarbamoyl)-4,5-difluoro-phenoxy]-acetic acid] came in with a concentration for half-maximal inhibition (IC50) of 33 nM.
As to `Cc1cc(C(=O)NCc2ccc(Br)cc2F)c(OCC(=O)O)cc1F` [Example 45, [2-(4-Bromo-2-fluoro-benzylcarbamoyl)-5-fluoro-4-methyl-phenoxy]-acetic acid], the IC50 in test [1] (setting [3]) was 24 nM. Further, in test [2], the IC50 amounted to 5800 nM and the hALR1/hALR2 amounted to 240.
As to `Cc1cc(C(=S)NCc2ccc(Br)cc2F)c(OCC(=O)O)cc1F` [Example 46, [2-(4-Bromo-2-fluoro-benzylthiocarbamoyl)-5-fluoro-4-methyl-phenoxy]-acetic acid], in test [1] (setting [3]), the midpoint of inhibition, the IC50, lay at 24 nM. In addition, in test [2], the IC50 was 31000 nM and the hALR1/hALR2 is 1,300.
Molecule `Cc1cc(C(=O)NCc2cccc([N+](=O)[O-])c2)c(OCC(=O)O)cc1F` [Example 47, [2-(3-Nitro-benzylcarbamoyl)-5-fluoro-4-methyl-phenoxy]-acetic acid] showed a concentration for half-maximal inhibition (IC50) in test [1] (setting [3]) of 8 nM.
Consider `Cc1cc(C(=S)NCc2cccc([N+](=O)[O-])c2)c(OCC(=O)O)cc1F` [Example 48, [2-(3-Nitro-benzylthiocarbamoyl)-5-fluoro-4-methyl-phenoxy]-acetic acid], for which the IC50 in test [1] (setting [3]) amounted to 7 nM.
For `O=C(O)COc1cc(F)c(Br)cc1C(=O)NCc1cccc([N+](=O)[O-])c1` [Example 49, [4-Bromo-5-fluoro-2-(3-nitro-benzylcarbamoyl)-phenoxy]-acetic acid], the results for the half-inhibitory concentration (IC50) in test [1] (setting [3]) and in test [2] were 6 nM and 44000 nM, respectively. The hALR1/hALR2 in test [2] is 7,300.
On to `O=C(O)COc1cc(F)c(-c2ccccc2)cc1C(=O)NCc1cccc([N+](=O)[O-])c1` [Example 50, [5-(3-Nitro-benzylcarbamoyl)-2-fluoro-biphenyl-4-yloxy]-acetic acid], for which the half-inhibitory concentration (IC50) in test [1] (setting [3]) came to 7 nM; in test [2] it was 14000 nM. Besides, in test [2], the hALR1/hALR2 was 2,000.
The corresponding values for `O=C(O)COc1cc(F)c(-c2ccccc2)cc1C(=S)NCc1cccc([N+](=O)[O-])c1` [Example 51, [5-(3-Nitro-benzylthiocarbamoyl)-2-fluoro-biphenyl-4-yloxy]-acetic acid] are 11 nM, 12000 nM and 1,100.
For `N#Cc1cc(C(=O)NCc2cccc([N+](=O)[O-])c2)c(OCC(=O)O)cc1F` [Example 52, [2-(3-Nitro-benzylcarbamoyl)-4-cyano-5-fluoro-phenoxy]-acetic acid], half-maximal inhibition in test [1] (setting [3]) (IC50) was put at 7 nM.
Turning to `O=C(O)COc1cc(F)c(N2CCOCC2)cc1C(=O)NCc1cccc([N+](=O)[O-])c1` [Example 53, [2-(3-Nitro-benzylcarbamoyl)-5-fluoro-4-morpholin-4-yl-phenoxy]-acetic acid], the concentration for half-maximal inhibition (IC50) in test [1] (setting [3]) turned out to be 7 nM; in test [2] it was 54000 nM.
`O=C(O)COc1cc(Cl)ccc1C(=O)NCc1nc2cc(C(F)(F)F)ccc2s1` [Example 57, {5-Chloro-2-[(5-trifluoromethyl-benzothiazol-2-ylmethyl)-carbamoyl]-phenoxy}-acetic acid]: in test [1] (setting [3]), the 50% inhibitory concentration (IC50) came to 35 nM. That is a double-digit nanomolar value.
